This is an account of results in US10189796B2, “[4-(1,3,3-trimethyl-2-oxo-3,4-dihydro-1H-quinoxalin-7-yl)phenoxy]ethyloxy compound or salt thereof” (SANTEN PHARMACEUTICAL CO., LTD., priority 2015, dated 2019).

For one test, the target named is Recombinant human GR (Homo sapiens (Human), UniProt P04150). Briefly: GR competitive binding assay by fluorescence polarization. The following applies: 20 μM test compound solution, 10 μL/well; 2 hours; DEX positive control; read-out: GR binding rate (%). The protocol: In order to evaluate a binding activity of the present compound to GR, a GR receptor competitor assay was carried out by a fluorescence polarization method. In the assay, a GR competitive binding assay kit (manufactured by Invitrogen, cat No. P2816) was used for the assay, and a procedure was carried out according to the protocol attached to the kit. Hereinafter, the specific method will be described.
GR screening buffer: A buffer containing 10 mM of potassium phosphate (pH 7.4), 20 mM of sodium molybdate (Na2MoO4), 0.1 mM of ethylene diamine tetraacetic acid (EDTA), 5 mM of dithiothreitol (DTT), 0.1 mM of stabilizing peptide and 2% of dimethylsulfoxide was prepared.
4×GS1 solution: Fluormone™ GS1, which is a fluorescent glucocorticoid ligand, was diluted with GR screening buffer, whereby a 4 nM solution was prepared.
4×GR solution: Recombinant human GR was diluted with GR screening buffer, whereby a 16 nM solution was prepared.
After a test compound was dissolved in dimethylsulfoxide, the resulting solution was diluted with GR screening buffer, whereby a 20 μM test compound solution was prepared. In addition, DEX was similarly dissolved, whereby a DEX solution with a […] concentration was prepared, and the solution was diluted with GR screening buffer, whereby a 2 mM DEX solution was prepared. DEX was used as positive control.
• 1) The test compound solution was added in an amount of 10 μL into each well of a 384-well plate. • 2) 4×GS1 solution and 4×GR solution were added in an amount of 5 μL into each well, respectively. • 3) GR screening buffer was added in an amount of 10 μL/well into each well in place of the test compound solution, which was made a negative control. • 4) A 2 mM of DEX was added in an amount of 10 μL/well into each well in place of the test compound solution, which was made a positive control. • 5) The plate was incubated in a dark place at room temperature for 2 hours, and fluorescence polarization of each well was measured. (Calculation Equation of GR Binding Ratio)
A GR binding ratio (%) was calculated from the following equation. GR binding ratio (%)=100×{1−(fluorescence polarization of test compound solution−average value of fluorescence polarization of positive control solution)/(average value of fluorescence polarization of negative control solution−average value of fluorescence polarization of positive control solution)}
On the technique in general: Fluorescence polarisation rises when a labelled molecule tumbles more slowly, as on binding a larger partner.

Test [1] deals with IL-6 production in human corneal epithelium cell line (HCE-T). Briefly: IL-6 production inhibitory action evaluation test (LPS stimulation, HTRF). The class given is cell-based. The following applies: 4 hours; for Emax: 100 μM test compound solution 10 μL/well, DEX treated group = 100, read-out: IL-6 production inhibitory ratio (% DEX); for IC50: IL-6 production inhibition. The protocol:
To evaluate the action of the present compounds as a GR agonist, IL-6 production inhibitory action in human corneal epithelial cell line after LPS stimulation was examined The IL-6 production was measured by using the HTRF method (Cat No. 62IL6PEB manufactured by Cisbio Bioassays, Inc.) according to the attached protocol. The specific method is described below.
LPS solution: After dissolving LPS in PBS(−), the resulting solution was diluted with a culture solution, whereby an LPS solution with a 1 μg/mL concentration was prepared.
After dissolving the test compound in dimethylsulfoxide, the solution was diluted with a 10% FBS-DMEM/Ham's F12 medium, whereby a 100 μM of the test compound solution was prepared. […] In addition, DEX was similarly dissolved, whereby a 100 μM concentration of the DEX solution was prepared, and an IL-6 production inhibitory ratio of DEX was measured, and used for calculation of Efficacy (% DEX).
Used cells: human corneal epithelium cell line (HCE-T) (RIKEN, Institute of Physical and Chemical Research)
The cells continued to subculture according to this method were used for the test. (Test Method and Measurement Method) • 1) The subcultured HCE-T was recovered and the cells were seeded at 2.0×10^4 cells/0.1 mL/well in a 96-well flat bottom culture plate. • 2) After culturing overnight, medium the medium was removed and each 80 μL/well of 10%
FBS-DMEM/Ham's F12 medium was added. • 3) Test compound solution was added with each 10 μL/well. • 4) LPS solution was added with each 10 μL/well. • 5) The sample to which 1% dimethylsulfoxide-containing 10% FBS-DMEM/Ham's F12 medium was added with each 10 μL/well in place of each test compound solution, and 10% FBS-DMEM/Ham's F12 medium was added in place of the LPS solution was made a negative control. • 6) The sample in which 1% dimethylsulfoxide-containing 10% FBS-DMEM/Ham's F12 medium was added with each 10 μL/well in place of each test compound solution was made a positive control. • 7) After completion of 4 hours cultivation, the supernatant was recovered and the amount of IL-6 released in the supernatant was measured by using an HTRF human IL-6 Kit. • 8) The IL-6 production inhibitory ratio was calculated according to the following calculation formula. (Calculation of IL-6 Production Inhibitory Ratio)
The IL-6 production inhibitory ratio (%) was calculated by the following formula. IL-6 production inhibitory ratio (%)=100×{1−(IL-6 produced amount of each test compound solution−average value of IL-6 produced amount of negative control group)/(average value of IL-6 produced amount of positive control group−average value of IL-6 produced amount of negative control group)}(%)
Further, the IL-6 production inhibitory ratio (Efficacy (% DEX)) when the DEX treated group was made 100 was calculated. Efficacy (% DEX)=100×{(average value of IL-6 production inhibitory ratio of each test compound solution)/(average value of IL-6 production inhibitory ratio of DEX treated group)}(%)
In addition, IC50 was calculated according to a conventional method. IDBS XLfit4 was used for the calculation.
Background: Time-resolved FRET reads energy transfer from a long-lived donor to a nearby acceptor.

SMILES strings stand for the structures. Structures can show the parent of a compound that is named as a salt.

Chain of Recombinant human GR (P04150 whole entry): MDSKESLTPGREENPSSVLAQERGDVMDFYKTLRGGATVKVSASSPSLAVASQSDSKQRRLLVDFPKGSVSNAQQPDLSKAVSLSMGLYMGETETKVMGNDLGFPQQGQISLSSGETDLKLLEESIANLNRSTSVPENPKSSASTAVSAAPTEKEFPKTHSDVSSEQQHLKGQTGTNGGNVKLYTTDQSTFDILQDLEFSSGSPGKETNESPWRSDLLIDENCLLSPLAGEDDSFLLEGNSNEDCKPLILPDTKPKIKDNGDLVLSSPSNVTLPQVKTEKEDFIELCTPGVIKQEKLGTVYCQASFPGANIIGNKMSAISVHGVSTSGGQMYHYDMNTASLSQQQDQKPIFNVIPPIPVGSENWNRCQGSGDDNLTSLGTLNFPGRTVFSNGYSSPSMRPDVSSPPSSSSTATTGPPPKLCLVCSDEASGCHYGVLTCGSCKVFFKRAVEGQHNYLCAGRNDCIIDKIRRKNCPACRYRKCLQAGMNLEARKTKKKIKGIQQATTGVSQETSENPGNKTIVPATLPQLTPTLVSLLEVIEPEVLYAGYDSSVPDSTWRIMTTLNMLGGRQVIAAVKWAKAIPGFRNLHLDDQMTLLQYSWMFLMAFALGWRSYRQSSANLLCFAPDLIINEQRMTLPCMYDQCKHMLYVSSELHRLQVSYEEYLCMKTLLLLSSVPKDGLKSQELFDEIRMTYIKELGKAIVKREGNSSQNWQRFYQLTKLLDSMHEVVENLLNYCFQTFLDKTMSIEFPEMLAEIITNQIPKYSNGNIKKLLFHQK

With `CCOC(=O)C(O)COc1ccc(-c2ccc3c(c2COc2cc(F)ccc2C)N(C)C(=O)C(C)(C)N3)c(OC)c1` (stereo in doubt) [Compound 1-6, (R)-7-[4-(2-ethoxycarbonyl-2-hydroxyethyl)oxy-2-methoxyphenyl]-8-(5-fluoro-2-methylphenoxymethyl)-1,3,3-trimethyl-3,4-dihydro-1H-quinoxalin-2-one], the inhibition at 10 µM at Recombinant human GR was found to be 87%. In addition, in test [1], the Emax is 89% and the IC50 is under 0.001 µM. Regarding `COc1cc(OCCO)ccc1-c1ccc2c(c1COc1cc(F)ccc1C)N(C)C(=O)C(C)(C)N2` [Compound 3-1, 8-(5-fluoro-2-methylphenoxymethyl)-7-[4-(2-hydroxyethyl)oxy-2-methoxyphenyl]-1,3,3-trimethyl-3,4-dihydro-1H-quinoxalin-2-one], the inhibition at 10 µM at Recombinant human GR was over 99%. Same read-out and setting: for `COc1cc(OCC(O)CO)ccc1-c1ccc2c(c1COc1cc(F)ccc1C)N(C)C(=O)C(C)(C)N2` (centres unmarked) [Compound 4-1, 7-[4-(2,3-dihydroxypropyl)oxy-2-methoxyphenyl]-8-(5-fluoro-2-methylphenoxymethyl)-1,3,3-trimethyl-3,4-dihydro-1H-quinoxalin-2-one] the value was over 99%. Turning to `COc1cc(OC[C@@H](O)CO)ccc1-c1ccc2c(c1COc1cc(F)ccc1C)N(C)C(=O)C(C)(C)N2` [Compound 4-2, (S)-7-[4-(2,3-dihydroxypropyl)oxy-2-methoxyphenyl]-8-(5-fluoro-2-methylphenoxy-methyl)-1,3,3-trimethyl-3,4-dihydro-1H-quinoxalin-2-one], on Recombinant human GR, the inhibition at 20 µM (stock) was over 99%. For the molecule `COc1cc(OC[C@H](O)CO)ccc1-c1ccc2c(c1COc1cc(F)ccc1C)N(C)C(=O)C(C)(C)N2` [Compound 4-3, (R)-7-[4-(2,3-dihydroxypropyl)oxy-2-methoxyphenyl]-8-(5-fluoro-2-methylphenoxy-methyl)-1,3,3-trimethyl-3,4-dihydro-1H-quinoxalin-2-one], the inhibition at 10 µM on Recombinant human GR worked out at 88%. As for `COc1cc(OC[C@H](O)CC#N)ccc1-c1ccc2c(c1COc1cc(F)ccc1C)N(C)C(=O)C(C)(C)N2` [Compound 5-1, (R)-7-[4-(3-cyano-2-hydroxypropyl)oxy-2-methoxyphenyl]-8-(5-fluoro-2-methyl-phenoxymethyl)-1,3,3-trimethyl-3,4-dihydro-1H-quinoxalin-2-one], the inhibition at 10 µM at Recombinant human GR turned out to be 88%. Besides, in test [1], the Emax was found to be 98% and the midpoint of inhibition, the IC50, lay at 0.014 µM. Regarding `CCOC(=O)CC(O)COc1ccc(-c2ccc3c(c2COc2cc(F)ccc2C)N(C)C(=O)C(C)(C)N3)c(OC)c1` (centres unmarked) [Compound 7-1, 7-[4-(3-ethoxycarbonyl-2-hydroxypropyl)oxy-2-methoxyphenyl]-8-(5-fluoro-2-methylphenoxymethyl)-1,3,3-trimethyl-3,4-dihydro-1H-quinoxalin-2-one], the inhibition at 10 µM on Recombinant human GR is over 99%. For `COc1cc(OCC(O)CC(=O)OC(C)(C)C)ccc1-c1ccc2c(c1COc1cc(F)ccc1C)N(C)C(=O)C(C)(C)N2` (centres unmarked) [Compound 7-2, 7-[4-(3-t-butoxycarbonyl-2-hydroxypropyl)oxy-2-methoxyphenyl]-8-(5-fluoro-2-methylphenoxymethyl)-1,3,3-trimethyl-3,4-dihydro-1H-quinoxalin-2-one], at Recombinant human GR, the inhibition at 10 µM is over 99%. In test [1], the Emax is over 99% and the IC50 was 0.083 µM.

Consider `COc1cc(OCC(O)CC(=O)O)ccc1-c1ccc2c(c1COc1cc(F)ccc1C)N(C)C(=O)C(C)(C)N2` (centres unmarked) [Compound 9-1, 7-[4-(3-Carboxy-2-hydroxypropyl)oxy-2-methoxyphenyl]-8-(5-fluoro-2-methylphenoxymethyl)-1,3,3-trimethyl-3,4-dihydro-1H-quinoxalin-2-one], for which the inhibition at 10 µM at Recombinant human GR is over 99%. The same measure, in the same setting: as for `COc1cc(OCC(O)CC(=O)N2CCCC2)ccc1-c1ccc2c(c1COc1cc(F)ccc1C)N(C)C(=O)C(C)(C)N2` (centres unmarked) [Compound 10-1, 8-(5-fluoro-2-methylphenoxymethyl)-7-[4-[3-(N-pyrrolidylcarbonyl)-2-hydroxypropyl]oxy-2-methoxyphenyl]-1,3,3-trimethyl-3,4-dihydro-1H-quinoxalin-2-one], the figure is 94%. On the same count and under the same terms, for `COc1cc(OCC(O)CC(=O)N2CCCCC2)ccc1-c1ccc2c(c1COc1cc(F)ccc1C)N(C)C(=O)C(C)(C)N2` (centres unmarked) [Compound 10-3, 8-(5-fluoro-2-methylphenoxymethyl)-7-[4-[3-(N-piperidino)carbonyl-2-hydroxy-propyl]oxy-2-methoxyphenyl]-1,3,3-trimethyl-3,4-dihydro-1H-quinoxalin-2-one] the value was over 99%. Regarding `COc1cc(OC[C@H](C)OC(=O)CN)ccc1-c1ccc2c(c1COc1cc(F)ccc1C)N(C)C(=O)C(C)(C)N2` [Compound 11-4, (S)-7-[4-(2-aminoacetoxypropyl)oxy-2-methoxyphenyl]-8-(5-fluoro-2-methylphenoxy-methyl)-1,3,3-trimethyl-3,4-dihydro-1H-quinoxalin-2-one hydrochloride], the Emax in test [1] is 94%. In the case of `COc1cc(OC[C@H](C)OC(=O)[C@@H](N)C(C)C)ccc1-c1ccc2c(c1COc1cc(F)ccc1C)N(C)C(=O)C(C)(C)N2` [Compound 11-5, 7-[4-[(2S)-[(2S)-amino-3-methylbutanoyloxy]propyl]oxy-2-methoxyphenyl]-8-(5-fluoro-2-methylphenoxymethyl)-1,3,3-trimethyl-3,4-dihydro-1H-quinoxalin-2-one hydrochloride], on Recombinant human GR, the inhibition at 10 µM is over 99%. Besides, the Emax in test [1] came to 94%.

By IC50 is commonly meant the concentration that inhibits the measured activity by half. Read a high IC50 as lower potency.
